According to PMC4083421 (Nature Communications, 2014):
Where two headings read alike, the source gives them in different places.

Tests used:
Assay type in all cases: binding
1LysM module of AtlA [1] = biological target: T1, 1LysM module of AtlA (Enterococcus faecalis, UniProt P37710); assay: biochemical; settings: Apparent KD to 1LysM (SPR), single LysM module; ± standard deviation
1LysM module of AtlA [2] = biological target: T1, 1LysM module of AtlA; assay: biochemical
L1–L6 = biological target: T2, L1–L6 (Enterococcus faecalis, UniProt P37710); assay: Steady-state SPR; settings: SD
T2 sequence (P37710 338-737): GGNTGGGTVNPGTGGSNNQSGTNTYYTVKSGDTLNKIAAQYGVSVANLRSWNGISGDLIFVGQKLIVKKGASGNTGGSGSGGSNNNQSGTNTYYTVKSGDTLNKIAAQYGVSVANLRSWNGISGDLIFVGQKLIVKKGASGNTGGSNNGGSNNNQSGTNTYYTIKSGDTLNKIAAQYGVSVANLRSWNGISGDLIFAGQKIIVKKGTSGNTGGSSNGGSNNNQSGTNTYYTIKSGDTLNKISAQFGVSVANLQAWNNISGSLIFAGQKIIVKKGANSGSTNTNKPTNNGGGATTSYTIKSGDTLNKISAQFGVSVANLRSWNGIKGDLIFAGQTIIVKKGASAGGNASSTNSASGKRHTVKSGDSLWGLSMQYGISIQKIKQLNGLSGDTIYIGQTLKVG

L1L2L3 = biological target: T3, L1L2L3 (Enterococcus faecalis, UniProt P37710); assay: Steady-state SPR; settings: SD
T3 sequence (P37710 338-542 A476S/S477A): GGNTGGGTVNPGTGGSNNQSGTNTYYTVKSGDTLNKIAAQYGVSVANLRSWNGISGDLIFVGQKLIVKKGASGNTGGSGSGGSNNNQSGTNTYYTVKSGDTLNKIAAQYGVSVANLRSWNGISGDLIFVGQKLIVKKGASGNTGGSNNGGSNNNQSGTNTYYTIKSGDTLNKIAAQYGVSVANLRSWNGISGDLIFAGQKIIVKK

L1L2 = L1L2 (Enterococcus faecalis, UniProt P37710); assay: Steady-state SPR
L1 = L1 (Enterococcus faecalis, UniProt P37710); assay: Steady-state SPR
1 (1LysM, WT) [3] = biological target: T4, 1 (1LysM, WT) (Enterococcus faecalis, UniProt P37710); assay: Steady-state SPR
1 (1LysM, WT) [4] = biological target: T4, 1 (1LysM, WT); assay: SPR

SMILES	Kd (1LysM module of AtlA [1])	Kd (L1–L6)	Kd (L1L2L3)	Kd (L1L2; SD)	Kd (L1; SD)	further results
CC(=O)N[C@H]1[C@H](O[C@H]2[C@H](O)[C@@H](NC(C)=O)C(O)O[C@@H]2CO)O[C@H](CO)[C@@H](O[C@@H]2O[C@H](CO)[C@@H](O[C@@H]3O[C@H](CO)[C@@H](O)[C@H](O)[C@H]3NC(C)=O)[C@H](O)[C@H]2NC(C)=O)[C@@H]1O (stereo partly drawn) [GlcNAc4, reference compound]	43.4 ± 3 µM					Kd (1LysM module of AtlA [2]): 90 µM
CC(=O)N[C@H]1[C@H](O[C@H]2[C@H](O)[C@@H](NC(C)=O)C(O)O[C@@H]2CO)O[C@H](CO)[C@@H](O)[C@@H]1O (stereo partly drawn) [GlcNAc2, chitobiose (di-N-acetylchitobiose, beta-1,4-linked GlcNAc dimer)]		4420 µM	7100 µM			Kd (L1L2): > 5000 µM; Kd (L1): > 5000 µM; Kd (1 (1LysM, WT) [3]): > 5000 µM
CC(=O)N[C@H]1[C@H](O[C@H]2[C@H](O)[C@@H](NC(C)=O)C(O)O[C@@H]2CO)O[C@H](CO)[C@@H](O[C@@H]2O[C@H](CO)[C@@H](O[C@@H]3O[C@H](CO)[C@@H](O)[C@H](O)[C@H]3NC(C)=O)[C@H](O)[C@H]2NC(C)=O)[C@@H]1O (stereo partly drawn) [GlcNAc4, chitotetraose (tetra-N-acetylchitotetraose, beta-1,4-linked GlcNAc tetramer)]		18.6 ± 4.5 µM	22.3 ± 1.8 µM	38.1 ± 2.8 µM	50.4 ± 4.1 µM	
CC(=O)N[C@H]1[C@H](O[C@H]2[C@H](O)[C@@H](NC(C)=O)C(O)O[C@@H]2CO)O[C@H](CO)[C@@H](O[C@@H]2O[C@H](CO)[C@@H](O)[C@H](O)[C@H]2NC(C)=O)[C@@H]1O (stereo partly drawn) [GlcNAc3]	408 ± 80.8 µM					
CC(=O)N[C@H]1[C@H](O[C@H]2[C@H](O)[C@@H](NC(C)=O)C(O)O[C@@H]2CO)O[C@H](CO)[C@@H](O[C@@H]2O[C@H](CO)[C@@H](O)[C@H](O)[C@H]2NC(C)=O)[C@@H]1O (stereo partly drawn) [GlcNAc3, chitotriose (tri-N-acetylchitotriose, beta-1,4-linked GlcNAc trimer)]		702 ± 87.7 µM	628 ± 32.8 µM	678 ± 57.3 µM	453 ± 58.6 µM	
CC(=O)N[C@H]1[C@H](O[C@H]2[C@H](O)[C@@H](NC(C)=O)[C@H](O[C@H]3[C@H](O)[C@@H](NC(C)=O)C(O)O[C@@H]3CO)O[C@@H]2CO)O[C@H](CO)[C@@H](O[C@@H]2O[C@H](CO)[C@@H](O[C@@H]3O[C@H](CO)[C@@H](O)[C@H](O)[C@H]3NC(C)=O)[C@H](O)[C@H]2NC(C)=O)[C@@H]1O (stereo partly drawn) [GlcNAc5, chitopentaose (penta-N-acetylchitopentaose, beta-1,4-linked GlcNAc pentamer)]		2.2 ± 0.3 µM	4.6 ± 0.4 µM	9.6 ± 0.8 µM	12.1 ± 1.4 µM	Kd (1 (1LysM, WT) [4]): 11.7 ± 1.7 µM
CC(=O)N[C@H]1[C@H](O[C@H]2[C@H](O)[C@@H](NC(C)=O)[C@H](O[C@H]3[C@H](O)[C@@H](NC(C)=O)C(O)O[C@@H]3CO)O[C@@H]2CO)O[C@H](CO)[C@@H](O[C@@H]2O[C@H](CO)[C@@H](O[C@@H]3O[C@H](CO)[C@@H](O[C@@H]4O[C@H](CO)[C@@H](O)[C@H](O)[C@H]4NC(C)=O)[C@H](O)[C@H]3NC(C)=O)[C@H](O)[C@H]2NC(C)=O)[C@@H]1O (stereo partly drawn) [GlcNAc6]	6 ± 0.8 µM					
CC(=O)N[C@H]1[C@H](O[C@H]2[C@H](O)[C@@H](NC(C)=O)[C@H](O[C@H]3[C@H](O)[C@@H](NC(C)=O)C(O)O[C@@H]3CO)O[C@@H]2CO)O[C@H](CO)[C@@H](O[C@@H]2O[C@H](CO)[C@@H](O[C@@H]3O[C@H](CO)[C@@H](O[C@@H]4O[C@H](CO)[C@@H](O)[C@H](O)[C@H]4NC(C)=O)[C@H](O)[C@H]3NC(C)=O)[C@H](O)[C@H]2NC(C)=O)[C@@H]1O (stereo partly drawn) [GlcNAc6, chitohexaose (hexa-N-acetylchitohexaose, beta-1,4-linked GlcNAc hexamer)]		1.5 ± 0.1 µM	3 ± 0.1 µM	5 ± 0.3 µM	5.6 ± 0.5 µM	
CC(=O)N[C@H]1[C@H](O[C@H]2[C@H](O[C@H](C)C(=O)O)[C@@H](NC(C)=O)C(O)O[C@@H]2CO)O[C@H](CO)[C@@H](O[C@@H]2O[C@H](CO)[C@@H](O[C@@H]3O[C@H](CO)[C@@H](O)[C@H](O)[C@H]3NC(C)=O)[C@H](O[C@H](C)C(=O)O)[C@H]2NC(C)=O)[C@@H]1O (stereo partly drawn) [(GlcNAc-MurNAc)2, (GlcNAc-β−1,4-MurNAc)2]						Kd (1LysM module of AtlA [2]): 650 µM
